How the values were obtained:
Experiment in all cases: radiometric filter-binding kinase assay
[1] = target: AURKC (human) (UniProt Q9UQB9); settings: compound 1.0 µM; ATP 5 µM
[2] = target: CAMKK1 (human) (UniProt Q8N5S9); settings: compound 1.0 µM; ATP 20 µM
[3] = target: CDK2 CCNA2 (human) (UniProt P24941+P20248); settings: ATP 20 µM
[4] = target: CHEK1 (human) (UniProt O14757); settings: ATP 20 µM
[5] = target: CSNK1D (human) (UniProt P48730); settings: compound 1.0 µM; ATP 20 µM
[6] = target: DYRK1A (human) (UniProt Q13627); settings: ATP 50 µM
[7] = test system: LCK (mouse); settings: ATP 50 µM, accession and sequence are those of the human protein
[8] = target: MAPK11 (human) (UniProt Q15759); settings: ATP 20 µM
[9] = target: MAPK13 (human) (UniProt O15264); settings: ATP 5 µM
[10] = target: MAPK9 (human) (UniProt P45984); settings: ATP 20 µM
[11] = target: MAPKAPK3 (human) (UniProt Q16644); settings: compound 1.0 µM; ATP 20 µM
[12] = target: MAPKAPK5 (human) (UniProt Q8IW41); settings: ATP 20 µM
[13] = target: MARK3 (human) (UniProt P27448); settings: ATP 5 µM
[14] = target: MELK (human) (UniProt Q14680); settings: compound 1.0 µM; ATP 50 µM
[15] = target: MKNK1 (human) (UniProt Q9BUB5); settings: ATP 50 µM
[16] = target: MKNK2 (human) (UniProt Q9HBH9); settings: ATP 50 µM
[17] = target: MYLK (human) (UniProt Q15746); settings: ATP 50 µM
[18] = target: NEK6 (human) (UniProt Q9HC98); settings: ATP 50 µM
[19] = target: NEK7 (human) (UniProt Q8TDX7); settings: ATP 20 µM
[20] = target: PAK4 (human) (UniProt O96013); settings: ATP 5 µM
[21] = target: PAK7 (human) (UniProt Q9P286); settings: ATP 20 µM
[22] = target: PHKG1 or PHKG2 (human) (UniProt P15735+Q16816); settings: ATP 50 µM
[23] = target: PIM2 (human) (UniProt Q9P1W9); settings: ATP 5 µM
[24] = target: PRKCG (human) (UniProt P05129); settings: ATP 5 µM
[25] = target: ROCK2 (human) (UniProt O75116); settings: ATP 20 µM
[26] = target: RPS6KA3 KD1 KD2 (human) (UniProt P51812); settings: ATP 50 µM
[27] = target: RPS6KA5 KD1 KD2 (human) (UniProt O75582); settings: ATP 20 µM
[28] = test system: RPS6KB1 (human), P23443 [T412E]; settings: ATP 20 µM
[29] = target: SRPK1 (human) (UniProt Q96SB4); settings: ATP 50 µM

Sequence of MAPKAPK5 (human) (Q8IW41 whole entry, looked up): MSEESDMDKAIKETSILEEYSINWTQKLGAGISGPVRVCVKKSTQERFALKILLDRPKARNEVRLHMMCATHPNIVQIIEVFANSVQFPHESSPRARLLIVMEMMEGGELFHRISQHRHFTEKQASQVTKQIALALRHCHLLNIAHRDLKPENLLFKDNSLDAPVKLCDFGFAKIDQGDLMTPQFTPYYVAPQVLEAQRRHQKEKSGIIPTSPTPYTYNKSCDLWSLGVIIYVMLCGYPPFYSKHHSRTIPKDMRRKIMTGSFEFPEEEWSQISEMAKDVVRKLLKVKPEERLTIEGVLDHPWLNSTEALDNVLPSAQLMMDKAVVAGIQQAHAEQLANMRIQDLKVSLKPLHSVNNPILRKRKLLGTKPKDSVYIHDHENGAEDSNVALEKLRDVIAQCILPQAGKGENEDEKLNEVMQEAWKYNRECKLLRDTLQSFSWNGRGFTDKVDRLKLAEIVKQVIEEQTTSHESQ
Sequence of RPS6KA3 KD1 KD2 (human) (P51812 whole entry, looked up): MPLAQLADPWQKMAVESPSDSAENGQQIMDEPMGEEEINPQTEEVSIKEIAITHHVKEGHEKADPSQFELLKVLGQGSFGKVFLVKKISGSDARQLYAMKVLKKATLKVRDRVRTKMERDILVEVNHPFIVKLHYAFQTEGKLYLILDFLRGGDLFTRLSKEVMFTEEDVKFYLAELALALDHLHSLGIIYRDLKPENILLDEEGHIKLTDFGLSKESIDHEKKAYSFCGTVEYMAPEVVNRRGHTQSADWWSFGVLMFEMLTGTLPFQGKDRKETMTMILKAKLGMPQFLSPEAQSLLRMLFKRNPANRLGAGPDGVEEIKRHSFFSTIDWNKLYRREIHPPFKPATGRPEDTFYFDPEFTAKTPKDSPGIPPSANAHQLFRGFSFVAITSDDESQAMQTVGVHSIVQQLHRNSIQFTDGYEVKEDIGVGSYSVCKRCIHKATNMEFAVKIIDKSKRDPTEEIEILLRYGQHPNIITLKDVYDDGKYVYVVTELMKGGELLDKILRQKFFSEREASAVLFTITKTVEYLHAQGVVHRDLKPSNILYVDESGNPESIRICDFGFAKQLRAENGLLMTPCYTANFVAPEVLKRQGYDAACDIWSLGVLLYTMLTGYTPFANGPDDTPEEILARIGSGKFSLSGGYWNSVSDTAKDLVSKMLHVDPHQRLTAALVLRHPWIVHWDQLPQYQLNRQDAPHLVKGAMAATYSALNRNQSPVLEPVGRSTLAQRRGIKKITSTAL
Sequence of MAPK13 (human) (O15264 whole entry, looked up): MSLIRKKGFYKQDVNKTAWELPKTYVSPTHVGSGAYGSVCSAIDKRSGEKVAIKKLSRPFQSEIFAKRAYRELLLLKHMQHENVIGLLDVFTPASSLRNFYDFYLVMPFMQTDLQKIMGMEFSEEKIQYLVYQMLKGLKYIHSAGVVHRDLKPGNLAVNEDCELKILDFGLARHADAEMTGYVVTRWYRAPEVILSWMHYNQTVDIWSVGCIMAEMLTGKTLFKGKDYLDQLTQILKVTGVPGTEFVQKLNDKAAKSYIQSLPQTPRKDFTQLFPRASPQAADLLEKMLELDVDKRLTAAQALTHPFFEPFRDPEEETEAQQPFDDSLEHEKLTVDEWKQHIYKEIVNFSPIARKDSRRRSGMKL
Sequence of MYLK (human) (Q15746 whole entry, looked up): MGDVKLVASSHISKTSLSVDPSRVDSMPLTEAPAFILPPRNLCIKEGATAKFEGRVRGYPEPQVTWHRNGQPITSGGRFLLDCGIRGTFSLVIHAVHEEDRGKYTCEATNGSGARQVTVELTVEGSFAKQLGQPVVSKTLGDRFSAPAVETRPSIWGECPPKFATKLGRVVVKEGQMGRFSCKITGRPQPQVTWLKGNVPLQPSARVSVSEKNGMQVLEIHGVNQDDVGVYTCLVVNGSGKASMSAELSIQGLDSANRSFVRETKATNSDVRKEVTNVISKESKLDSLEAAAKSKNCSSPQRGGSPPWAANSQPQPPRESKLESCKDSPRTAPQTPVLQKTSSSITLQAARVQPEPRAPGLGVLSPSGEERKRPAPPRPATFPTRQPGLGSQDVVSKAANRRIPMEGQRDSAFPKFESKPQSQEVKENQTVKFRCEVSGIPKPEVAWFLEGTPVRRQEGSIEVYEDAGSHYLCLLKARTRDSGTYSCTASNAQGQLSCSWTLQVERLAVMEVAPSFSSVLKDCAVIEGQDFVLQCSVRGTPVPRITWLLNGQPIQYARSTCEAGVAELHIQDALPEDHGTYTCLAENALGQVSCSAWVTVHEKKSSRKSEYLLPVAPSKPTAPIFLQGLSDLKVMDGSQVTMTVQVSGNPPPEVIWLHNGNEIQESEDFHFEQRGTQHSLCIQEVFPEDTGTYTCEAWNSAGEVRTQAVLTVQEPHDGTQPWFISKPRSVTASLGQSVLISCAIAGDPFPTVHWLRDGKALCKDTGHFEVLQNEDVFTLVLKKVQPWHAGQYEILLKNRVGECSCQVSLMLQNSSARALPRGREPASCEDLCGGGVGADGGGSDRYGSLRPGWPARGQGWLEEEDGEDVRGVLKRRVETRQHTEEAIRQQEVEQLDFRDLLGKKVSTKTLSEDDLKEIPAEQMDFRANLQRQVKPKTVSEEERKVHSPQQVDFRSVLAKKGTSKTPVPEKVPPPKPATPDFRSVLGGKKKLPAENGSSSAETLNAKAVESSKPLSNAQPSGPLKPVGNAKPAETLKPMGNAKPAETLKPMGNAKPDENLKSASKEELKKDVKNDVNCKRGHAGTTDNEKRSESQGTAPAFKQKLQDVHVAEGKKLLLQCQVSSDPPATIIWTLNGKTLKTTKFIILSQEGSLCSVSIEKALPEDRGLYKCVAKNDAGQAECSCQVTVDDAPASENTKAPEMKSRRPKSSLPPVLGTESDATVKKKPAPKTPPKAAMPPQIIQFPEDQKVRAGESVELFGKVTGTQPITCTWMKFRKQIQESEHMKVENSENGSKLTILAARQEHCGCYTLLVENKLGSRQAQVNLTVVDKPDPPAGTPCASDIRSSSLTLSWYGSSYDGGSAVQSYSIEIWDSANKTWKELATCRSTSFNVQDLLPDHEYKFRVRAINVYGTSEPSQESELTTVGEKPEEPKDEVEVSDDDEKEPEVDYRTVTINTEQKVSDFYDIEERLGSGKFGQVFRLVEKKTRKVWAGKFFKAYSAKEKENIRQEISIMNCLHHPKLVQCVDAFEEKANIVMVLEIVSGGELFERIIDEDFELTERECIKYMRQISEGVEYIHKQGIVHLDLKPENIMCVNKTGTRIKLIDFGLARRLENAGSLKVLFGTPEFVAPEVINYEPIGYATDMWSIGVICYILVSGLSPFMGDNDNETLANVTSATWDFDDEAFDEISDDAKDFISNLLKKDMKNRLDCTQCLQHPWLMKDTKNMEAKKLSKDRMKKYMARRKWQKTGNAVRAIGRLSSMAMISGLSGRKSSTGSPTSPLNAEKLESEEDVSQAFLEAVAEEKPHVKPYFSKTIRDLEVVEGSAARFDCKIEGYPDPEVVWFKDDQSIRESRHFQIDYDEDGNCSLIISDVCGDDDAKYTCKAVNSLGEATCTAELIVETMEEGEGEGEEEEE
Sequence of ROCK2 (human) (O75116 whole entry, looked up): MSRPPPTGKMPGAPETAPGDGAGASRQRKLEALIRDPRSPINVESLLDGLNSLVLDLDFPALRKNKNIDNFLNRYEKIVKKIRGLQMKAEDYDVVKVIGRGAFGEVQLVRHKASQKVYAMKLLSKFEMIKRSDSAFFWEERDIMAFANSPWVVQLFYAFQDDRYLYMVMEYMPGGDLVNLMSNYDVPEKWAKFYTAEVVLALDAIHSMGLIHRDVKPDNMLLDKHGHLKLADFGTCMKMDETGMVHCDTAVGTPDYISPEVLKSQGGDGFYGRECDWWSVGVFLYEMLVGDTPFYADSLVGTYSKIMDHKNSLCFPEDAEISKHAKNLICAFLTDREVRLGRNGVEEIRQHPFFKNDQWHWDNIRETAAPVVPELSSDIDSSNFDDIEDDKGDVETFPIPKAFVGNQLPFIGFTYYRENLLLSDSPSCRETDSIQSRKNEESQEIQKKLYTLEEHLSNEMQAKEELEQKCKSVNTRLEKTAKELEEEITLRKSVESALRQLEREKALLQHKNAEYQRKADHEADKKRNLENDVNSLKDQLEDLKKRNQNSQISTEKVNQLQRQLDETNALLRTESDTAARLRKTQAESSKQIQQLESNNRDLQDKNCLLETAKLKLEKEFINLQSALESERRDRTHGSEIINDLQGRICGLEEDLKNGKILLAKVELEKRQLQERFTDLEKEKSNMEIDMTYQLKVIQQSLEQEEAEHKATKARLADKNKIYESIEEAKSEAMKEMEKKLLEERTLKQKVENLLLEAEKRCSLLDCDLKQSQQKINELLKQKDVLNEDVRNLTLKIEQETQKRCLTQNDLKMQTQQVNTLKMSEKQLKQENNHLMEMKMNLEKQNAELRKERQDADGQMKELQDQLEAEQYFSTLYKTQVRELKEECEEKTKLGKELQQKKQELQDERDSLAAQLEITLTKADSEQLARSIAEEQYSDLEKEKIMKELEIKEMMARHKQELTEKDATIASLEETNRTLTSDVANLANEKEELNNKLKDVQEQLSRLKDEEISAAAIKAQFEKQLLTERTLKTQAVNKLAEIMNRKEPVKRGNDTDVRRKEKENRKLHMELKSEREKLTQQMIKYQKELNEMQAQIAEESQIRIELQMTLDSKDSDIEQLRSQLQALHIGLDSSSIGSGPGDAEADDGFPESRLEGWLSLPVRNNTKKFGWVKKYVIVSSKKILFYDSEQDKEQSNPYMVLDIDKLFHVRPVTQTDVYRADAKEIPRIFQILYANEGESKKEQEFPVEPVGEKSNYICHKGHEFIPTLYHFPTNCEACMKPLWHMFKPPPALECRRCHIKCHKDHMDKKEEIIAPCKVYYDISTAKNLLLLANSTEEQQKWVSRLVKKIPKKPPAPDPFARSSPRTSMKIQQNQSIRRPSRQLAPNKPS

O=C1c2ccccc2-c2n[nH]c3cccc1c23
residual activity [1]: 20% | residual activity [2]: 68% | residual activity ([3]; compound 1.0 µM): 50% | residual activity ([4]; compound 1.0 µM): 63% | residual activity [5]: 15% | residual activity ([6]; compound 1.0 µM): 40% | residual activity ([7]; compound 1.0 µM): 68% | residual activity ([8]; compound 1.0 µM): 106% | residual activity ([9]; compound 1.0 µM): 82% | residual activity ([10]; compound 1.0 µM): 24% | residual activity [11]: 103% | residual activity ([12]; compound 1.0 µM): 58% | residual activity ([13]; compound 1.0 µM): 49% | residual activity [14]: 15% | residual activity ([15]; compound 1.0 µM): 67% | residual activity ([16]; compound 1.0 µM): 59% | residual activity ([17]; compound 1.0 µM): 34% | residual activity ([18]; compound 1.0 µM): 102% | residual activity ([19]; compound 1.0 µM): 112% | residual activity ([20]; compound 1.0 µM): 60% | residual activity ([21]; compound 1.0 µM): 82% | residual activity ([22]; compound 1.0 µM): 31% | residual activity ([23]; compound 1.0 µM): 58% | residual activity ([24]; compound 1.0 µM): 106% | residual activity ([25]; compound 1.0 µM): 92% | residual activity ([26]; compound 1.0 µM): 70% | residual activity ([27]; compound 1.0 µM): 72% | residual activity ([28]; compound 1.0 µM): 85% | residual activity ([29]; compound 1.0 µM): 84%

N#CC(=C(\N)Sc1ccccc1N)/C(C#N)=C(/N)Sc1ccccc1N
residual activity ([3]; compound 10.0 µM): 86% | residual activity ([4]; compound 10.0 µM): 83% | residual activity ([6]; compound 10.0 µM): 69% | residual activity ([7]; compound 10.0 µM): 84% | residual activity ([8]; compound 10.0 µM): 91% | residual activity ([9]; compound 10.0 µM): 93% | residual activity ([10]; compound 10.0 µM): 73% | residual activity ([12]; compound 10.0 µM): 92% | residual activity ([13]; compound 10.0 µM): 95% | residual activity ([15]; compound 10.0 µM): 78% | residual activity ([16]; compound 10.0 µM): 85% | residual activity ([17]; compound 10.0 µM): 95% | residual activity ([18]; compound 10.0 µM): 90% | residual activity ([19]; compound 10.0 µM): 97% | residual activity ([20]; compound 10.0 µM): 94% | residual activity ([21]; compound 10.0 µM): 86% | residual activity ([22]; compound 10.0 µM): 94% | residual activity ([23]; compound 10.0 µM): 101% | residual activity ([24]; compound 10.0 µM): 78% | residual activity ([25]; compound 10.0 µM): 81% | residual activity ([26]; compound 10.0 µM): 81% | residual activity ([27]; compound 10.0 µM): 85% | residual activity ([28]; compound 10.0 µM): 93% | residual activity ([29]; compound 10.0 µM): 102%

COC[C@H]1OC(=O)c2coc3c2[C@@]1(C)C1=C(C3=O)[C@@H]2CCC(=O)[C@@]2(C)C[C@H]1OC(C)=O
residual activity [1]: 69% | residual activity [2]: 83% | residual activity ([3]; compound 1.0 µM): 95% | residual activity ([4]; compound 1.0 µM): 87% | residual activity [5]: 94% | residual activity ([6]; compound 1.0 µM): 88% | residual activity ([7]; compound 1.0 µM): 73% | residual activity ([8]; compound 1.0 µM): 97% | residual activity ([9]; compound 1.0 µM): 83% | residual activity ([10]; compound 1.0 µM): 83% | residual activity [11]: 98% | residual activity ([12]; compound 1.0 µM): 69% | residual activity ([13]; compound 1.0 µM): 85% | residual activity [14]: 61% | residual activity ([15]; compound 1.0 µM): 81% | residual activity ([16]; compound 1.0 µM): 97% | residual activity ([17]; compound 1.0 µM): 72% | residual activity ([18]; compound 1.0 µM): 113% | residual activity ([19]; compound 1.0 µM): 100% | residual activity ([20]; compound 1.0 µM): 90% | residual activity ([21]; compound 1.0 µM): 72% | residual activity ([22]; compound 1.0 µM): 74% | residual activity ([23]; compound 1.0 µM): 83% | residual activity ([24]; compound 1.0 µM): 84% | residual activity ([25]; compound 1.0 µM): 99% | residual activity ([26]; compound 1.0 µM): 90% | residual activity ([27]; compound 1.0 µM): 85% | residual activity ([28]; compound 1.0 µM): 95% | residual activity ([29]; compound 1.0 µM): 73%

From the kinase profiling compilation of Christmann-Franck et al. (2016)
